US8586579B2, “Anellated pyridine compounds” (Hoffmann-La Roche Inc., priority 2010, dated 2013)
Like-named read-outs stand apart in the source and are kept apart here.

Assays:
[1] = target: human D3 receptor (Homo sapiens (Human), UniProt P35462); experiment: Radioligand binding assay, [3H]-spiperone, human D3 receptor; settings: membranes of HEK293 EBNA cells expressing human D3; 0.5 nM [3H]-spiperone
Experimental: (§1) HEK293 EBNA cells were transiently transfected with expression plasmids encoding for the human D2 or D3 or for the human 5-HT2A receptor, respectively. The cells were harvested 48 h post-transfection, washed three times with cold PBS and stored at −80° C. prior to use. The pellet was suspended in cold 50 mM Tris-HCl buffer comprising 10 mM EDTA (pH 7.4) and was homogenized with a Polytron (Kinematica AG, Basel, Switzerland) for 20-30 sec at 12.000 rpm. After centrifugation at 48.000×g for 30 min at 4° C., the pellet was resuspended in cold 10 mM Tris-HCl buffer comprising 0.1 mM EDTA (pH 7.4), homogenized, and centrifuged as above. This pellet was further resuspended in a smaller volume of ice cold 10 mM Tris-HCl buffer comprising 0.1 mM EDTA (pH 7.4) and homogenized with a Polytron for 20-30 sec at 12.000 rpm. The protein content of this homogenate was determined with the Bio-Rad (Bradford) Protein Assay (Biorad Laboratories GmbH, München, Germany) according to the instructions of the manufacturer using gamma globulin as the standard. This homogenate was stored at −80° C. in aliquots and thawed immediately prior to use.
(§2) Aliquots of membrane preparations were thawed at RT, resuspended in assay buffer (D2, D3: 50 mM Tris-HCl, 120 mM NaCl, 5 mM MgCl2, 1 mM EDTA, 5 mM KCl, 1.5 mM CaCl2, pH=7.4; 5-HT2A: 50 mM Tris-HCl, 10 mM MgCl2, 1 mM EGTA, pH=7.4), homogenized with a Polytron for 20-30 sec at 12.000 rpm and adjusted to a final concentration of approximately 7.5 μg protein/well (D2, D3) and 15 μg protein/well (5-HT2A), respectively.
(§3) The binding affinity (Ki) of the compounds was determined using radioligand binding. Membranes were incubated in a total volume of 200 μl with a fixed concentration of radioligand (final concentration approximately 0.7 nM [^3H]-spiperone for D2, 0.5 nM [^3H]-spiperone for D3, and 1.1 nM [^3H]-ketanserin for 5-HT2A) and ten concentrations of test compound in ranging between 10 μM-0.1 nM for 1 h at RT. […] The nonspecific binding was determined with equally composed reaction mixtures in the presence of 10 μM unlabelled spiperone. Per well 45 μl of Microscint 40 (Perkin Elmer, Schwerzenbach, Switzerland) was added, plates for sealed, shaken for 20 min and counted for 3 min on a Topcount Microplate Scintillation Counter (Can berra Packard SA, Zürich, Switzerland) with quenching correction.
(§4) The CPM value for each duplicate of a concentration of competing compound was averaged (y1), then the % specific binding was calculated according to the equation (((y1−non-specific)/(total binding−non-specific))×100). Graphs were plotted with the % specific binding using XLfit, a curve fitting program that iteratively plots the data using Levenberg-Marquardt algorithm. The single site competition analysis equation used was y=A+((B−A)/(1+((x/C)D))), where y is the % specific binding, A is the minimum y, B is the maximum y, C is the IC50, x is the log 10 of the concentration of the competing compound and D is the slope of the curve (the Hill Coefficient). […] The affinity constant (K) was calculated using the Cheng-Prusoff equation Ki=(IC50/1+([L]/Kd), where [L] is the concentration of radioligand and Kd is the dissociation constant of the radioligand at the receptor as determined by the saturation isotherm.

[2] = target: human D2 receptor (Homo sapiens (Human), UniProt P14416); experiment: Radioligand binding assay, [3H]-spiperone, human D2 receptor; settings: membranes of HEK293 EBNA cells expressing human D2; 0.7 nM [3H]-spiperone
Sequence of human D2 receptor (P14416 whole entry): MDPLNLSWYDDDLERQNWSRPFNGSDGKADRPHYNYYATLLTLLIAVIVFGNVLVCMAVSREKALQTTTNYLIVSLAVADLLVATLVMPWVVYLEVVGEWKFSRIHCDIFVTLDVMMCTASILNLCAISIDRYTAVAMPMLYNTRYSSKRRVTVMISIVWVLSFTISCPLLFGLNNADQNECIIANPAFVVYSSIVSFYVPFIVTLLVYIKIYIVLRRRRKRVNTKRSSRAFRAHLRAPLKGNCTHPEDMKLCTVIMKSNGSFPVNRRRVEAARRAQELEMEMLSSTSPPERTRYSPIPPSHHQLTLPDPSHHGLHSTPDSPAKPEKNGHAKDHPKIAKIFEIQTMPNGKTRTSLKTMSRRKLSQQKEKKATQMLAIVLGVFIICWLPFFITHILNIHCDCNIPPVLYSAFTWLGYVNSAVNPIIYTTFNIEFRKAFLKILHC
Experimental: as §1, §2, §3
as §4, with “algorithm.” for “algorithm. The single site competition analysis equation used was y=A+((B−A)/(1+((x/C)D))), where y is the % specific binding, A is the minimum y, B is the maximum y, C is the IC50, x is the log 10 of the concentration of the competing compound and D is the slope of the curve (the Hill Coefficient).”

[3] = target: human 5-HT2A receptor (Homo sapiens (Human), UniProt P28223); experiment: Radioligand binding assay, [3H]-ketanserin, human 5-HT2A receptor
Sequence of human 5-HT2A receptor (P28223 whole entry): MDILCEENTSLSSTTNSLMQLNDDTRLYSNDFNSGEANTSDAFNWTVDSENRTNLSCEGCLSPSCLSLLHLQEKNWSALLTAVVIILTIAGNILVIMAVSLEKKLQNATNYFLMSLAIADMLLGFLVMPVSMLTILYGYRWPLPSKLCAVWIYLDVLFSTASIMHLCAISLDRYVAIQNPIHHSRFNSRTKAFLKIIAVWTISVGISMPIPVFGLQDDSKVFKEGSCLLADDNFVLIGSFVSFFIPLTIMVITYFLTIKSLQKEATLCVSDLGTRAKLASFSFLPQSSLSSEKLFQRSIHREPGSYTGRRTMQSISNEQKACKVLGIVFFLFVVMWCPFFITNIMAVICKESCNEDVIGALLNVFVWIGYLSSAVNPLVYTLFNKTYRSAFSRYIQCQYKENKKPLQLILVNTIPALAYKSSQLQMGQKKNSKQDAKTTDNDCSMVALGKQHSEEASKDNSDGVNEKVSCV
Experimental: as §1, §2, §3, §4

[4] = membranes of HEK293 EBNA cells expressing human 5-HT2A, 1.1 nM [3H]-ketanserin

Sequence of human D3 receptor (P35462 whole entry): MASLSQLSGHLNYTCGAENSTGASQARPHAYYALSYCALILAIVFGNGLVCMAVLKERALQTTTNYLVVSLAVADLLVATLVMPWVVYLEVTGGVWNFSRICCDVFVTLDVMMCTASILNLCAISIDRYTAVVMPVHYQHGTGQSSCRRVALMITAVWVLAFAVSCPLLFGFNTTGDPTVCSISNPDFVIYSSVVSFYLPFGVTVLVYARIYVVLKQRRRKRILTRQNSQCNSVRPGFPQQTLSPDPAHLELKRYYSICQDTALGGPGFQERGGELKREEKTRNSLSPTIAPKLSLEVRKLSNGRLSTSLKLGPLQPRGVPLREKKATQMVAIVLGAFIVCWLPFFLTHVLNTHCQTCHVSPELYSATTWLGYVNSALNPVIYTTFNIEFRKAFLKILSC

Compound | Ki [1] | Ki [2] | Ki [3] | Ki [3, 4]
CCC(=O)N[C@H]1CC[C@H](CCN2CCN(c3nccc4occc34)CC2)CC1 [Example 4, N-{trans-4-[2-(4-Furo[3,2-c]pyridin-4-yl-piperazin-1-yl)-ethyl]-cyclohexyl}-propionamide] | 11.8 nM | 780 nM | 6.5 nM | 
O=C(C[C@H]1CC[C@H](O)CC1)N[C@H]1CC[C@H](CCN2CCN(c3nccc4occc34)CC2)CC1 [Example 3, N-{trans-4-[2-(4-Furo[3,2-c]pyridin-4-yl-piperazin-1-yl)-ethyl]-cyclohexyl}-2-(trans-4-hydroxy-cyclohexyl)-acetamide] | 54.6 nM | 1540 nM | 8.8 nM | 
CC(=O)N[C@H]1CC[C@H](CCN2CCN(c3nccc4sccc34)CC2)CC1 [Example 15, N-{trans-4-[2-(4-Thieno[3,2-c]pyridin-4-yl-piperazin-1-yl)-ethyl]-cyclohexyl}-acetamide] | 1.9 nM | 119 nM | 3.3 nM | 
CS(=O)(=O)N[C@H]1CC[C@H](CCN2CCN(c3nccc4sccc34)CC2)CC1 [Example 30, N-{trans-4-[2-(4-Thieno[3,2-c]pyridin-4-yl-piperazin-1-yl)-ethyl]-cyclohexyl}-methanesulfonamide] | 4.3 nM | 265 nM |  | 2.9 nM
O=C(N[C@H]1CC[C@H](CCN2CCN(c3nccc4sccc34)CC2)CC1)C1CCOCC1 [Example 24, Tetrahydro-pyran-4-carboxylic acid {trans-4-[2-(4-thieno[3,2-c]pyridin-4-yl-piperazin-1-yl)-ethyl]-cyclohexyl}-amide] | 3.6 nM | 992 nM | 1.7 nM | 
CC(=O)N[C@H]1CC[C@H](CCN2CCN(c3nccc4occc34)CC2)CC1 [Example 1, N-{trans-4-[2-(4-Furo[3,2-c]pyridin-4-yl-piperazin-1-yl)-ethyl]-cyclohexyl}-acetamide] | 18.3 nM | 486 nM | 9.1 nM | 
COCCC(=O)N[C@H]1CC[C@H](CCN2CCN(c3nccc4sccc34)CC2)CC1 [Example 19, 3-Methoxy-N-{trans-4-[2-(4-thieno[3,2-c]pyridin-4-yl-piperazin-1-yl)-ethyl]-cyclohexyl}-propionamide] | 1.9 nM | 305 nM | 3.5 nM | 
COCCC(=O)N[C@H]1CC[C@H](CCN2CCN(c3nccc4occc34)CC2)CC1 [Example 5, N-{trans-4-[2-(4-Furo[3,2-c]pyridin-4-yl-piperazin-1-yl)-ethyl]-cyclohexyl}-3-methoxy-propionamide] | 24 nM | 1350 nM |  | 8.1 nM
CO[C@@H]1CC[C@@H](CC(=O)N[C@H]2CC[C@H](CCN3CCN(c4nccc5sccc45)CC3)CC2)C1 [Example 25, 2-((1R,3R)-3-Methoxy-cyclopentyl)-N-{trans-4-[2-(4-thieno[3,2-c]pyridin-4-yl-piperazin-1-yl)-ethyl]-cyclohexyl}-acetamide] | 2.7 nM | 234 nM |  | 4.9 nM
CCS(=O)(=O)N[C@H]1CC[C@H](CCN2CCN(c3nccc4sccc34)CC2)CC1 [Example 31, Ethanesulfonic acid {trans-4-[2-(4-thieno[3,2-c]pyridin-4-yl-piperazin-1-yl)-ethyl]-cyclohexyl}-amide] | 4.3 nM | 217 nM |  | 2.9 nM
O=C(N[C@H]1CC[C@H](CCN2CCN(c3nccc4occc34)CC2)CC1)C1CCOCC1 [Example 11, Tetrahydro-pyran-4-carboxylic acid {trans-4-[2-(4-furo[3,2-c]pyridin-4-yl-piperazin-1-yl)-ethyl]-cyclohexyl}-amide] | 55.7 nM | 515 nM |  | 2.9 nM
O=C(N[C@H]1CC[C@H](CCN2CCN(c3nccc4occc34)CC2)CC1)C1CC1 [Example 13, Cyclopropanecarboxylic acid {trans-4-[2-(4-furo[3,2-c]pyridin-4-yl-piperazin-1-yl)-ethyl]-cyclohexyl}-amide] | 21.8 nM | 261 nM |  | 4.4 nM
O=C(CO)N[C@H]1CC[C@H](CCN2CCN(c3nccc4occc34)CC2)CC1 [Example 7, N-{trans-4-[2-(4-Furo[3,2-c]pyridin-4-yl-piperazin-1-yl)-ethyl]-cyclohexyl}-2-hydroxy-acetamide] | 43 nM | 1360 nM |  | 5.6 nM
COCC(=O)N[C@H]1CC[C@H](CCN2CCN(c3nccc4sccc34)CC2)CC1 [Example 22, 2-Methoxy-N-{trans-4-[2-(4-thieno[3,2-c]pyridin-4-yl-piperazin-1-yl)-ethyl]-cyclohexyl}-acetamide] | 3.2 nM | 220 nM |  | 2.2 nM
O=C(CC1CCOCC1)N[C@H]1CC[C@H](CCN2CCN(c3nccc4sccc34)CC2)CC1 [Example 23, 2-(Tetrahydro-pyran-4-yl)-N-{trans-4-[2-(4-thieno[3,2-c]pyridin-4-yl-piperazin-1-yl)-ethyl]-cyclohexyl}-acetamide] | 2.7 nM | 144 nM |  | 3 nM
O=C(CC1CCOCC1)N[C@H]1CC[C@H](CCN2CCN(c3nccc4occc34)CC2)CC1 [Example 10, N-{trans-4-[2-(4-Furo[3,2-c]pyridin-4-yl-piperazin-1-yl)-ethyl]-cyclohexyl}-2-(tetrahydro-pyran-4-yl)-acetamide] | 30.3 nM | 683 nM |  | 6.1 nM
CO[C@@H]1CC[C@@H](CC(=O)N[C@H]2CC[C@H](CCN3CCN(c4nccc5sccc45)CC3)CC2)C1 (racemic) [Example 21, 2-(trans-3-Methoxy-cyclopentyl)-N-{trans-4-[2-(4-thieno[3,2-c]pyridin-4-yl-piperazin-1-yl)-ethyl]-cyclohexyl}-acetamide] | 3.6 nM | 271 nM |  | 3.7 nM
O=C(N[C@H]1CC[C@H](CCN2CCN(c3nccc4occc34)CC2)CC1)c1ccnc2ccccc12 [Example 29, Quinoline-4-carboxylic acid {trans-4-[2-(4-furo[3,2-c]pyridin-4-yl-piperazin-1-yl)-ethyl]-cyclohexyl}-amide] | 23.2 nM | 461 nM |  | 5.3 nM
CO[C@H]1CC[C@H](CC(=O)N[C@H]2CC[C@H](CCN3CCN(c4nccc5occc45)CC3)CC2)CC1 [Example 9, N-{trans-4-[2-(4-Furo[3,2-c]pyridin-4-yl-piperazin-1-yl)-ethyl]-cyclohexyl}-2-(trans-4-methoxy-cyclohexyl)-acetamide] | 32.7 nM | 1460 nM |  | 5.6 nM
CO[C@H]1CC[C@H](CC(=O)N[C@H]2CC[C@H](CCN3CCN(c4nccc5sccc45)CC3)CC2)C1 [Example 26, 2-((1S,3S)-3-Methoxy-cyclopentyl)-N-{trans-4-[2-(4-thieno[3,2-c]pyridin-4-yl-piperazin-1-yl)-ethyl]-cyclohexyl}-acetamide] | 3 nM | 246 nM |  | 4.3 nM
CS(=O)(=O)N[C@H]1CC[C@H](CCN2CCN(c3nccc4occc34)CC2)CC1 [Example 14, N-{trans-4-[2-(4-Furo[3,2-c]pyridin-4-yl-piperazin-1-yl)-ethyl}-cyclohexyl]-methanesulfonamide] | 34.1 nM | 866 nM |  | 6.8 nM
